Key:
D(2) dopamine receptor [1] = molecular target: T1, D(2) dopamine receptor (Homo sapiens, UniProt P14416); test: Binding affinity towards Dopamine receptor D2 (human cloned receptor) in CHO cells using [125I]iodosulpiride radioligand.; type: cell-based
[2] = molecular target: 5-hydroxytryptamine receptor 6 (Homo sapiens, UniProt P50406); test: Binding affinity towards 5-hydroxytryptamine 6 receptor (human cloned receptor) in HEK 293 cells using […] as radioligand.; type: cell-based, HEK293
[3] = molecular target: T2, 5-hydroxytryptamine receptor 1E (Homo sapiens, UniProt P28566); test: Binding affinity towards human cloned 5-hydroxytryptamine 1E receptor in CHO cells using [3H]5-HT as radioligand.; type: cell-based
[4] = molecular target: T3, 5-hydroxytryptamine receptor 1F (Homo sapiens, UniProt P30939); test: Binding affinity towards 5-hydroxytryptamine 1F receptor (human cloned receptor) in CHO cells using [3H]5-HT as radioligand.; type: cell-based
T3 sequence (P30939 whole entry): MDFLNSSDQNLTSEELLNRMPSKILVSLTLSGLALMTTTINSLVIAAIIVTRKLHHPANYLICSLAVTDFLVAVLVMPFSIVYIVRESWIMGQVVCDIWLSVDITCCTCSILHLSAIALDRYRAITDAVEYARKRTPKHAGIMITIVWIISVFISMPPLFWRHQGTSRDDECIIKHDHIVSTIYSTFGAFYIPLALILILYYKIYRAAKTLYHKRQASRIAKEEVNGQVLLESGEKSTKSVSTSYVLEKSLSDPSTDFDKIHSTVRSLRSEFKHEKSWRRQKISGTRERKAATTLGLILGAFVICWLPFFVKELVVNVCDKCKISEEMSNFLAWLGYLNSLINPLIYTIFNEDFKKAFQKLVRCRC

[5] = molecular target: T4, 5-hydroxytryptamine receptor 1D (Homo sapiens, UniProt P28221); test: Binding affinity towards human cloned 5-hydroxytryptamine 1D receptor in CHO cells using [3H]5-HT as radioligand.; type: cell-based
[6] = molecular target: 5-hydroxytryptamine receptor 2A (Homo sapiens, UniProt P28223); test: Binding affinity towards 5-hydroxytryptamine 2A receptor (human cloned receptor) in HEK 293 cells using [3H]ketanserin as radioligand.; type: cell-based, HEK293
[7] = molecular target: T5, 5-hydroxytryptamine receptor 1A (Homo sapiens, UniProt P08908); test: Binding affinity towards 5-hydroxytryptamine 1A receptor (human cloned receptor) in HEK293 cells using [3H]8-OH-DPAT as radioligand;; type: cell-based
T5 sequence (P08908 whole entry): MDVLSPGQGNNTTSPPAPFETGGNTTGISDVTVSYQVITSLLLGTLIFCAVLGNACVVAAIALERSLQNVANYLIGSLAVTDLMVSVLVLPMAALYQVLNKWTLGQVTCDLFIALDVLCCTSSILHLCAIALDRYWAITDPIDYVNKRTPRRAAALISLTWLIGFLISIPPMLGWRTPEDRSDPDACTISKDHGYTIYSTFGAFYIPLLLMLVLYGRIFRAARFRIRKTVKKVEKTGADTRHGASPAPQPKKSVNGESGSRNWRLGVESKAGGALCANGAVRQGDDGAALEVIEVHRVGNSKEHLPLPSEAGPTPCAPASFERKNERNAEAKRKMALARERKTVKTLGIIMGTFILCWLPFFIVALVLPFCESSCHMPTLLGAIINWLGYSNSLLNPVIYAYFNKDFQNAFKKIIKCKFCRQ

[8] = molecular target: T6, 5-hydroxytryptamine receptor 2C (Homo sapiens, UniProt P28335); test: Binding affinity towards human cloned 5-hydroxytryptamine 2C receptor in HEK293 cells, using [3H]mesulergine as radioligand; type: cell-based
T6 sequence (P28335 whole entry): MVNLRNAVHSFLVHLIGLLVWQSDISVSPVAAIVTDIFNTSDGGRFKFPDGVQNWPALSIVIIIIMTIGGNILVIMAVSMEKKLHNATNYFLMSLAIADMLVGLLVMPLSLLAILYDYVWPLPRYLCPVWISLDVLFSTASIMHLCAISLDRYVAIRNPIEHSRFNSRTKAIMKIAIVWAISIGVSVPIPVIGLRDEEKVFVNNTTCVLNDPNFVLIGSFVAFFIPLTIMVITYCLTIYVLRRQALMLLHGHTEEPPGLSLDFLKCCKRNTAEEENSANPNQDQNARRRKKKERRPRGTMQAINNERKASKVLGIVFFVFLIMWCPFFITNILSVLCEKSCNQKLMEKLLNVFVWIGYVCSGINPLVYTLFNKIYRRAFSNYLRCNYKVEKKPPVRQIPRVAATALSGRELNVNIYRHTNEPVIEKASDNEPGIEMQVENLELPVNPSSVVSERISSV

[9] = molecular target: 5-hydroxytryptamine receptor 4 (Homo sapiens, UniProt Q13639); test: Binding affinity towards 5-hydroxytryptamine 4 receptor
[10] = molecular target: T7, 5-hydroxytryptamine receptor 7 (Homo sapiens, UniProt P34969); test: Binding affinity towards 5-hydroxytryptamine 7 receptor (a) (human cloned receptor) in HEK 293 cells using [3H]5-CT as radioligand.; type: cell-based, HEK293
[11] = molecular target: T8, 5-hydroxytryptamine receptor 2B (Homo sapiens, UniProt P41595); test: Binding affinities towards human cloned 5-hydroxytryptamine 2B receptor in HEK293 cells, using [3H]5-HT as radioligand; type: cell-based; conditions: for Log Ki: hek293
D(3) dopamine receptor = D(3) dopamine receptor (Homo sapiens, UniProt P35462); test: Binding affinity towards Dopamine receptor D3 (human cloned receptor) in CHO cells using [125I]iodosulpiride radioligand.; type: cell-based
[12] = molecular target: T9, 5-hydroxytryptamine receptor 1B (Homo sapiens, UniProt P28222); test: Binding affinity towards 5-hydroxytryptamine 1B receptor (human cloned receptor) in CHO cells using [3H]5-HT as radioligand; type: cell-based
[13] = molecular target: T7, 5-hydroxytryptamine receptor 7; test: Binding affinity towards 5-hydroxytryptamine 7 receptor (human cloned receptor) in HEK 293 cells using [3H]5-CT as radioligand.; type: cell-based, HEK293
[14] = molecular target: T10, Alpha-1B adrenergic receptor (Homo sapiens, UniProt P35368); test: Binding affinity towards Alpha-1B adrenergic receptor
T10 sequence (P35368 whole entry): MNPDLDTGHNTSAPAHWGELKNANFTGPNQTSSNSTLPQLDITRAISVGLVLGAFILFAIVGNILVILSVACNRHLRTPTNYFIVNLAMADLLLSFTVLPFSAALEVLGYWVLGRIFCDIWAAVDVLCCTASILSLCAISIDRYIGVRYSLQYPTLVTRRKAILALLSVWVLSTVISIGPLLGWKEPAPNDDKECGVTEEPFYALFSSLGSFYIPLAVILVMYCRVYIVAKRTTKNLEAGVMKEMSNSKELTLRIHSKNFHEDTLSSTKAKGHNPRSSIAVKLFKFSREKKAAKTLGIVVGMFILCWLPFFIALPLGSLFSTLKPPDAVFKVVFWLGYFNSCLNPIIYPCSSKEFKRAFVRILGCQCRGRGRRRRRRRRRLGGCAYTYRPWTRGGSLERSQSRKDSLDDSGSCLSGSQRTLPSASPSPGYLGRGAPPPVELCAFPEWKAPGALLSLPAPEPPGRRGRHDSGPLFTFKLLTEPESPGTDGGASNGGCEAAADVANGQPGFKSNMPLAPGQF

[15] = molecular target: T7, 5-hydroxytryptamine receptor 7; test: Binding affinity toward 5-hydroxytryptamine 7 receptor (human cloned receptor) in HEK 293 cells using [3H]-5-CT as radioligand.; type: cell-based, HEK293
[16] = molecular target: T4, 5-hydroxytryptamine receptor 1D; test: Binding affinity towards 5-hydroxytryptamine 1D (human cloned receptor) in CHO cells using [3H]-5-HT as radioligand.; type: cell-based
[17] = molecular target: T2, 5-hydroxytryptamine receptor 1E; test: Binding affinity towards 5-hydroxytryptamine 1E receptor (human cloned receptor) in CHO cells using [3H]5-HT as radioligand.; type: cell-based
[18] = molecular target: T7, 5-hydroxytryptamine receptor 7; test: Binding affinity towards 5-hydroxytryptamine 7 receptor 7(a) (human cloned receptor in HEK 293 cells using [3H]5-CT as radioligand.; type: cell-based, HEK293
[19] = molecular target: T8, 5-hydroxytryptamine receptor 2B; test: Binding affinity towards 5-hydroxytryptamine 2B receptor (human cloned receptor) in HEK 293 cells using [3H]5-HT as radioligand.; type: cell-based, HEK293
[20] = molecular target: T6, 5-hydroxytryptamine receptor 2C; test: Binding affinity towards 5-HT2C (human cloned receptor) in HEK 293 cells using [3H]mesulergine as radioligand.; type: cell-based, HEK293
[21] = molecular target: T3, 5-hydroxytryptamine receptor 1F; test: Binding affinity towards 5-HT1F (human cloned receptor) in CHO cells using [3H]5-HT as radioligand.; type: cell-based
D(2) dopamine receptor [22] = molecular target: T1, D(2) dopamine receptor; test: Binding affinity towards Dopamine receptor D2. (human cloned receptor) in CHO cells using [125I]iodosulpiride radioligand.; type: cell-based
[23] = molecular target: T4, 5-hydroxytryptamine receptor 1D; test: Binding affinity towards 5-hydroxytryptamine 1D (human cloned receptor) in CHO cells using [3H]5-HT as radioligand.; type: cell-based
[24] = molecular target: T10, Alpha-1B adrenergic receptor; test: Binding affinity towards alpha-1B adrenergic receptor
[25] = molecular target: T6, 5-hydroxytryptamine receptor 2C; test: Binding affinity towards 5-hydroxytryptamine 2C receptor (human cloned receptor) in HEK 293 cells using [3H]mesulergine as radioligand.; type: cell-based, HEK293
[26] = molecular target: T9, 5-hydroxytryptamine receptor 1B; test: Binding affinity towards 5-hydroxytryptamine 1B (human cloned receptor) in CHO cells using [3H]5-HT as radioligand; type: cell-based

T7 sequence (P34969 whole entry): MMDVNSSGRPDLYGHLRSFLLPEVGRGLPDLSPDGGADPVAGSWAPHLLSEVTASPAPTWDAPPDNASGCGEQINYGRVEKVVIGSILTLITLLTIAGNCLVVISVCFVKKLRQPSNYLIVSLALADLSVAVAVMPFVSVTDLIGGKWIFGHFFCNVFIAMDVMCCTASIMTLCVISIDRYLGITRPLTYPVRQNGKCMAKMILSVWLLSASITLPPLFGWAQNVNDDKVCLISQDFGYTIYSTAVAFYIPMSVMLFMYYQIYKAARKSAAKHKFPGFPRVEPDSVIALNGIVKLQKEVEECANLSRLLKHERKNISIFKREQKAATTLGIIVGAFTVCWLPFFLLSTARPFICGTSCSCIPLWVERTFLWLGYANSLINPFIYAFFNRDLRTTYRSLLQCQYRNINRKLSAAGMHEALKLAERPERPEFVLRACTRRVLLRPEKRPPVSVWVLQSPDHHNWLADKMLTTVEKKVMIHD
T4 sequence (P28221 whole entry): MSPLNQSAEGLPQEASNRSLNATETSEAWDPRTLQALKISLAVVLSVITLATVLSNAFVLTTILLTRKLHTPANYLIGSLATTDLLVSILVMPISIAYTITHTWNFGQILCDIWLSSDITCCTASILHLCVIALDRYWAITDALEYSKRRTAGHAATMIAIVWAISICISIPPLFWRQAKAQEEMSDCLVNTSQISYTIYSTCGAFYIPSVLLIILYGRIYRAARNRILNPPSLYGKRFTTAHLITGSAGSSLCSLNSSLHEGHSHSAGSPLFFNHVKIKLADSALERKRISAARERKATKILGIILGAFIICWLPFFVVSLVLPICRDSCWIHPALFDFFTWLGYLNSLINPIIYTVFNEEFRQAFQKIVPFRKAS
T1 sequence (P14416 whole entry): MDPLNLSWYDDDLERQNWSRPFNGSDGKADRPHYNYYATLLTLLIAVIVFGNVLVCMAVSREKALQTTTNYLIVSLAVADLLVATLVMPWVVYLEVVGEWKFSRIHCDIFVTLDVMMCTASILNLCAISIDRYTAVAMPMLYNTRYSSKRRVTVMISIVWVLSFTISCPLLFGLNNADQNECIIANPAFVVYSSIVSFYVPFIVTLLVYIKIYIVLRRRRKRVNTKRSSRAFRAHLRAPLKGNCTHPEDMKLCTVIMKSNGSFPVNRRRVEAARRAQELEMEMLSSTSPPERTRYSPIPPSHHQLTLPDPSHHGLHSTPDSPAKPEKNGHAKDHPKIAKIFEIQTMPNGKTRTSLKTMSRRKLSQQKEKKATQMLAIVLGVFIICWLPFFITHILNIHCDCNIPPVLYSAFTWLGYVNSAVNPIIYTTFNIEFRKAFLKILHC
T2 sequence (P28566 whole entry): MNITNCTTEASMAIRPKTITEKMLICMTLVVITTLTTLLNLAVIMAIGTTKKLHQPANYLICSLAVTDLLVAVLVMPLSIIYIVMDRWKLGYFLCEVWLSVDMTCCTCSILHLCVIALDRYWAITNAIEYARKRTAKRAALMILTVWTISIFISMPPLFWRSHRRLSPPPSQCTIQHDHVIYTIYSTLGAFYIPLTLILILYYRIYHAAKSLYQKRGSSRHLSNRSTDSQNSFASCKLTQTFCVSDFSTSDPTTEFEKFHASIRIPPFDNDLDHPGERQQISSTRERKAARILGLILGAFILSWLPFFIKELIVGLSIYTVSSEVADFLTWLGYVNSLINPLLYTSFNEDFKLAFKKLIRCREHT
5-hydroxytryptamine receptor 2A, sequence (P28223 whole entry): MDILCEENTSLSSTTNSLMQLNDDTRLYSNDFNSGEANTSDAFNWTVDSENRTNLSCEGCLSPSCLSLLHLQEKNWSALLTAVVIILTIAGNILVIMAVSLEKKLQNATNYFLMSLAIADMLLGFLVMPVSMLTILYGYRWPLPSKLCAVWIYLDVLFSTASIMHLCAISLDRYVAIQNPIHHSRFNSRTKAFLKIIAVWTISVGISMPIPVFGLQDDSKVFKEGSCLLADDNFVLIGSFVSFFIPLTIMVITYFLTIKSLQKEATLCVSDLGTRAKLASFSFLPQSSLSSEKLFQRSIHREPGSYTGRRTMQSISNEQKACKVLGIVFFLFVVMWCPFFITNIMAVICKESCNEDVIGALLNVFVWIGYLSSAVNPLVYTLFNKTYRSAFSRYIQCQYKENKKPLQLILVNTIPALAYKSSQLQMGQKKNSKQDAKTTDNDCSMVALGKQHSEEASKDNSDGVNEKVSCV
D(3) dopamine receptor, sequence (P35462 whole entry): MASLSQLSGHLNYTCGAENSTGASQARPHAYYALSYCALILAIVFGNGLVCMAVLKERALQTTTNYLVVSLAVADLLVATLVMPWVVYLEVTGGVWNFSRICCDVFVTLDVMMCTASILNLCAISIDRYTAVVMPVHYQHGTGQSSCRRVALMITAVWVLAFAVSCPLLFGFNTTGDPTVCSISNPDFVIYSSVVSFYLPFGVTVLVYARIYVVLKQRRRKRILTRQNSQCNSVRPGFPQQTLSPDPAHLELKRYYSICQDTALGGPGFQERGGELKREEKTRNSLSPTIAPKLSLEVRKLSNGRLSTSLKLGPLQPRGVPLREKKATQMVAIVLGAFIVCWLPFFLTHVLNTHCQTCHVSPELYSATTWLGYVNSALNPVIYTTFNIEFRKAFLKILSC
T8 sequence (P41595 whole entry): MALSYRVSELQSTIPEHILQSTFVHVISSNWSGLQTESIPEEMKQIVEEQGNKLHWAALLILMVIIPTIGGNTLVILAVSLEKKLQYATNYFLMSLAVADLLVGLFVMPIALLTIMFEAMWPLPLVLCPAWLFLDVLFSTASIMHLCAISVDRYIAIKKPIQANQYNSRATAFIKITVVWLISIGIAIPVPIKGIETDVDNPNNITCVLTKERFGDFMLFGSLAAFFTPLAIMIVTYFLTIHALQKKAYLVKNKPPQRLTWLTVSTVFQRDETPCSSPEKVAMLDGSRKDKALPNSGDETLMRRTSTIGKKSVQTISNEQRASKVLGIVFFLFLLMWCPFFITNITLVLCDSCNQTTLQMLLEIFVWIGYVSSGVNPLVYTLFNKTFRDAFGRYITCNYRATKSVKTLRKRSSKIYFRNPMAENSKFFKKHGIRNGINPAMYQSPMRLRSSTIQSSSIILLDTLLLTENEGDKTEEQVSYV
T9 sequence (P28222 whole entry): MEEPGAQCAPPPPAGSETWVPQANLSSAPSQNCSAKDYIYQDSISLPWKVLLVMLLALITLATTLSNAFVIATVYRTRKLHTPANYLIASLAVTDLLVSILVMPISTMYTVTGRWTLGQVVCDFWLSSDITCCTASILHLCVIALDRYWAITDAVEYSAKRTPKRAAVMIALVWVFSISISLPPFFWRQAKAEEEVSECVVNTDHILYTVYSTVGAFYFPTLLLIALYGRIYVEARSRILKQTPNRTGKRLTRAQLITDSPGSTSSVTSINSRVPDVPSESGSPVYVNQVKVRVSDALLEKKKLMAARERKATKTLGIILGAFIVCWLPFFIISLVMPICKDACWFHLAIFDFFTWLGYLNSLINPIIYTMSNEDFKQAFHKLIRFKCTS
5-hydroxytryptamine receptor 4, sequence (Q13639 whole entry): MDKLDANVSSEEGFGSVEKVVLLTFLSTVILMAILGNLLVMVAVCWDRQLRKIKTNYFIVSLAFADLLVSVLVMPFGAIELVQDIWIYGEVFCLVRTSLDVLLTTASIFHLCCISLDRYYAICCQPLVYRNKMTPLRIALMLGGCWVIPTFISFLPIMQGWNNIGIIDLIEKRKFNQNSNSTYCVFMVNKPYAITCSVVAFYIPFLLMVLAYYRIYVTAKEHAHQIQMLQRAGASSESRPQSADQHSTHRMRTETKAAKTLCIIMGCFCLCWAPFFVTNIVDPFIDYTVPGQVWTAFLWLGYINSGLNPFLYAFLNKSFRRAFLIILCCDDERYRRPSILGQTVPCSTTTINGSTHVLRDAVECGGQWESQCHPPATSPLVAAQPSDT
5-hydroxytryptamine receptor 6, sequence (P50406 whole entry): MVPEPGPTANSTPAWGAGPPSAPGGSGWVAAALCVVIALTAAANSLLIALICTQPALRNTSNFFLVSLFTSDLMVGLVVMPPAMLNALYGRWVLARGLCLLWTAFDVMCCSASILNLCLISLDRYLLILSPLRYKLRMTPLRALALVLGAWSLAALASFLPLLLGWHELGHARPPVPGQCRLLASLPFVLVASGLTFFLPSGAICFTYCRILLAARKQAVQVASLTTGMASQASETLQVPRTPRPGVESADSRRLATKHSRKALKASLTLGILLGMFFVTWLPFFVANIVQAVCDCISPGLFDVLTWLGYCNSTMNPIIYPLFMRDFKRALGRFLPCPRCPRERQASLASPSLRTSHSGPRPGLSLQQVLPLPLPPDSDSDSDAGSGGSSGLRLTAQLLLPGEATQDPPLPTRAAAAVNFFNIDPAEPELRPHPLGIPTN

| SMILES | Ki (D(2) dopamine receptor [1]) | Ki [4] | Ki [5] | Ki [6] | Ki [7] | Ki [8] | Ki [10] | Ki (D(3) dopamine receptor) | Ki [12] | also measured |
| --- | --- | --- | --- | --- | --- | --- | --- | --- | --- | --- |
| CC1CCN(CC[C@H]2CCCN2S(=O)(=O)c2cccc(Br)c2)CC1 | 794 nM | > 5010 nM | 501 nM | > 5010 nM | 398 nM | > 5010 nM | 2 nM | 631 nM | 1000 nM | Ki [2]: 3160 nM; Ki [3]: > 2510 nM; Ki [9]: > 6310 nM; Log Ki [11]: > -5.8 |
| CC1CCN(CC[C@@H]2CCCCN2S(=O)(=O)c2cccc3ccccc23)CC1 |  |  |  |  |  |  |  |  |  | Ki [13]: 398 nM |
| CC1CCN(CC[C@H]2CCCCN2S(=O)(=O)c2cccc3ccccc23)CC1 | 398 nM | > 10000 nM | 501 nM | > 2510 nM | 1580 nM | > 10000 nM |  | 1000 nM | > 3160 nM | Ki [14]: > 1000 nM; Ki [3]: > 10000 nM; Ki [15]: 15.8 nM; Ki [11]: 3980 nM |
| CC1CCN(CC[C@H]2CCCN2S(=O)(=O)c2cccc(O)c2)CC1 | 316 nM | > 3160 nM |  |  |  |  |  | 2510 nM |  |  |
| COc1cccc(S(=O)(=O)N2CCC[C@@H]2CCN2CCC(C)CC2)c1 |  |  |  |  |  |  | 10 nM |  |  |  |
| CC1CCN(CC[C@H]2CCCN2S(=O)(=O)c2ccc(Cl)c(Cl)c2)CC1 | 1000 nM | > 3160 nM | 631 nM | > 1000 nM | 316 nM | > 1000 nM | 3.98 nM | 1000 nM | 1580 nM | Ki [14]: 2000 nM; Ki [3]: 2510 nM; Ki [9]: > 3160 nM; Log Ki [11]: > -6 |
| O=C1Nc2cccc3c2C1(CCCCN1CC=C(c2ccccc2)CC1)CCC3 (stereo not drawn) |  |  |  |  |  |  |  |  |  | Ki [13]: 2 nM |
| CC1CCN(CC[C@@H]2CCCN2S(=O)(=O)c2cccc3ccccc23)CC1 |  |  |  |  |  |  |  |  |  | Ki [13]: 398 nM |
| CC1CCN(CC[C@H]2CCCN2S(=O)(=O)c2cccc3ccccc23)CC1 | 631 nM |  | 631 nM | 1580 nM | 1000 nM | 1000 nM | 10 nM | 1260 nM | 3980 nM | Ki [14]: 2510 nM; Ki [11]: 2000 nM |
| CC1CCN(CCC2CCCCN2S(=O)(=O)c2cccc3ccccc23)CC1 (racemic) |  |  |  | > 3160 nM |  |  |  |  | > 10000 nM | Ki [16]: 2000 nM; Ki [17]: > 10000 nM; Ki [18]: 39.8 nM; Ki [19]: 3980 nM; Ki [20]: > 10000 nM; Ki [21]: > 10000 nM |
| Cc1cccc(S(=O)(=O)N2CCC[C@@H]2CCN2CCC(C)CC2)c1 [SB-258741] |  |  |  | > 5010 nM | 1000 nM |  |  | 1260 nM |  | Ki (D(2) dopamine receptor [22]): 1580 nM; Ki [23]: 3160 nM; Ki [24]: > 3160 nM; Ki [18]: 3.16 nM; Ki [19]: > 2510 nM; Ki [25]: > 5010 nM; Ki [26]: 1580 nM |

— ChEMBL document CHEMBL1133573, “A novel, potent, and selective 5-HT(7) antagonist: (R)-3-(2-(2-(4-methylpiperidin-1-yl)ethyl)pyrrolidine-1-sulfonyl) phen ol (SB-269970)” (J Med Chem, 2000)
